Data from patent publication US20090099095A1, “Novel neuroprotective peptide” (priority 2007, published 2009).

B1: glial-derived neurotrophic factor (protein, UniProt P39905 78-211, looked up)
Glial cell line-derived …: SPDKQMAVLPRRERNRQAAAANPENSRGKGRRGQRGKNRGCVLTAIHLNVTDLGLGYETKEELIFRYCSGSCDAAETTYDKILKNLSRNRRLVSDKVGQACCRPIAFDDDLSFLDDNLVYHILRKHSAKRCGCI
notes: recombinant protein added to control medium at 1 ng/ml

What was measured:
[1] = system: cells in the dentate gyrus of OHSCs; test: Immunofluorescence count of dentate gyrus cells double-labelled for PI and DCX or NeuN after NMDA; format: cell-based, rat
Description: To determine the cell types which were protected by pentinin, we fixed OHSCs and performed immunofluorescence for markers of neuronally committed progenitors (DCX) and neurons (NeuN). Cells in the dentate gyrus were counted, and the percentage of cells double-labelled for PI and each marker was determined.
To characterise cell death, OHSCs were cultured in N2 medium with different concentrations of NMDA (in the presence of PI). After 24 h, OHSCs were washed in PBS and fixed in 4% paraformaldehyde (overnight, 4° C.). OHSCs were blocked and permeabilised by incubation for two hours in PTS (0.1M sodium phosphate buffer, 0.3% triton X-100 and 1% donkey serum (Jackson Immunoresearch Laboratories Inc., West Grove, Pa.)) at room temperature (RT), then incubated overnight (rocking, 4° C.) with mouse anti-NeuN antibody (1:500, Chemicon International Inc, Temecula, Calif.), rabbit anti-Caspase3A antibody (1:250, Cell Signalling Technology), and goat anti doublecortin antibody (Dcx, 1:400, Santa Cruz Biotechnology, Santa Cruz, USA). After thorough washing (3×30 mins in PTS, rocking), OHSCs were incubated overnight (rocking, 4° C.) with donkey anti-mouse Alexa 647-conjugated antibody (1:800, Molecular Probes, Leiden, Netherlands), donkey anti-rabbit Alexa 488-conjugated antibody (1:800, Molecular Probes) and donkey anti-goat Alexa 488-conjugated antibody (1:800, Molecular Probes). OHSCs were washed thoroughly and mounted in Prolong Gold mounting medium (Molecular Probes). Colocalisation of PI and/or Caspase3A staining with NeuN and Dcx immunofluorescence was determined by confocal microscopy (Leica TCS SP2, Leica Microsystems AG, Wetzlar, Germany).

[2] = system: organotypic hippocampal slice cultures (OHSCs); test: NMDA-induced excitotoxicity in organotypic hippocampal slice cultures, propidium iodide (PI) uptake; format: cell-based, rat
Description: To test the neuroprotective qualities of test media, OHSCs were first preincubated with PI for 24 hours. Fluorescent photomicrographs were taken, and used to determine the level of background staining. OHSCs were then transferred to test media one hour before 10 μM NMDA was added. Photomicrographs were taken again after 24 hours of NMDA exposure, and the change in PI staining intensity was quantified.
Rat organotypic hippocampal slice cultures (400 μm thick) were prepared from P9 Sprague-Dawley rats, using the method of Stoppini and coworkers^9. OHSCs were cultured in slice medium (50% BME, 25% EBSS, 23% horse serum, 7.5 mg/ml D-glucose, 1 mM L-glutamine and 25 U/ml PEST) for 12-14 days before experiments commenced.
OHSCs were transferred to test media one hour before exposure to 10 μM NMDA for 24 h. The degree of NMDA-induced excitotoxicity was determined by comparing propidium iodide (PI) uptake prior to exposure with that following exposure. Pictures were captured using a digital camera (Olympus DP50) coupled to an inverted fluorescence microscope (Olympus IX70), equipped with a red long-pass WG fluorescence filter. Uptake of PI was quantified as the mean pixel intensity of epifluorescence, over the whole slice, or in defined sub-regions (ImageJ v1.29x).

[3] = system: organotypic hippocampal slice cultures (OHSCs); settings: high doses, literature ref 10; cited from earlier work

Molecule	reduction of percentage of immature neuronal marker (DCX) cells co-labelled with PI ([1]; 100 pM pentinin) [%]	reduction of percentage of mature neuronal marker (NeuN) cells co-labelled with PI ([1]; 100 pM pentinin) [%]	number of neurons killed by NMDA-induced toxicity ([1]; 100 pM synthetic pentinin)	effect on excitotoxicity induced by NMDA ([2]; 100 μM peptide in unconditioned medium)	effective dose in dose response assay ([2]; synthetic peptide added to unconditioned medium, results not shown) [µM]	doses at which neuroprotective in OHSCs [3] [ng/mL]	effect on NMDA-induced excitotoxicity / PI staining (in words) ([2]; whole slice, 10 μM NMDA 24 h, GDNF at 1 ng/ml where added)
tyr, thr, pro, lys, thr (YTPKT; Human) [pentinin, pentameric peptide fragment corresponding to residues 26-30 of the insulin B chain]	86	64	markedly reduced	reduce excitotoxicity	100		
B1						50 to 100	did not reduce excitotoxicity
